Reference: patent publication US20200107546A1, “METHODS AND COMPOSITIONS FOR CONTROLLING UNDESIRED VEGETATION SUCH AS INVASIVE ANNUAL GRASSES” (priority 2018, published 2020)

Legend:
[1] = Soil half-life of herbicides
Description: As used herein, “short-residual” denotes an herbicide having a median soil half-life of no greater than 50 days, such as less than 40 days or less than 30 days.
Imazamox is a short-residual imidazolinone herbicide having a soil half-life of about 20-30 days. Additionally, imazamethabenz methyl is a short-residual imidazolinone herbicide having a soil half-life of about 25-36 days.

[2] = system: perennial grasses Hesperostipa comata (needle-and-thread), Aristida purpurea (purple three-awn) and Bouteloua gracilis (blue grama); test: Example 3 pre-emergence field application, injury and biomass of desirable perennial grasses; type: in vivo
Protocol: (§1) In the following Examples, desirable perennial grasses were treated to control the invasive annual grass Bromus tectorum (cheatgrass) either pre-emergence or post-emergence with either indaziflam, imazapic, imazamox, glyphosate, or combinations thereof. Imazapic, glyphosate, and combinations comprising either imazapic and/or glyphosate were used for purposes of comparison.
(§2) Table 3 summarizes the herbicidal efficacies (% Control) and damage caused to desired perennial grasses (% Injury) during the first year after the active ingredients of Table 1 were applied to perennial grasses of species Hesperostipa comata (needle-and-thread), Aristida purpurea (purple three-awn) and Bouteloua gracilis (blue grama). Table 4 further sets forth the biomass in kilograms per hectare (kg/ha) of Bromus tectorum and perennial grass measured in the first year after treatment.
(§3) All treatments include 0.25% NIS.
(§4) Imazapic, indaziflam, and a combination of indaziflam and imazamox were applied via a backpack research sprayer to desirable perennial grasses to control unwanted Bromus tectorum pre-emergence.

[3] = system: Bromus tectorum (cheatgrass); test: Example 2 post-emergence field application, control of Bromus tectorum; type: in vivo; settings: Plateau 7 oz/A, Esplanade 200SC 7 oz/A, Raptor 6 oz/A, 0.25% NIS
Protocol: as §1
(§5) Table 3 summarizes the herbicidal efficacies (% Control), damage caused to desired perennial grasses (% Injury), and cover (% Cover) when the active ingredients of Table 1 were applied to perennial grasses of species Bromus inermis (smooth brome) and Agropyron smithii (western wheatgrass).
as §3
(§6) Imazapic, indaziflam, imazamox, and a combination of indaziflam and imazamox were applied via a backpack research sprayer to perennial grasses to control Bromus tectorum post-emergence.

[4] = system: perennial grasses Bromus inermis (smooth brome) and Agropyron smithii (western wheatgrass); test: Example 2 post-emergence field application, injury and cover of desirable perennial grasses; type: in vivo
Protocol: as §1, §5, §3, §6

[5] = system: Bromus tectorum (cheatgrass); test: Example 3 pre-emergence field application, control and biomass of Bromus tectorum; type: in vivo; settings: for % Control Bromus tectorum / Biomass (kg/ha) Bromus tectorum: first year after treatment, 0.25% NIS
Protocol: as §1, §2, §3, §4

[6] = in vivo, 1 year after treatment
[7] = pre-emergence, first year after treatment, Plateau 7 oz/A, Esplanade 200SC 7 oz/A, Raptor 6 oz/A, 0.25% NIS
[8] = Year 2 after treatment, post-emergence, Plateau 7 oz/A, Esplanade 200SC 7 oz/A, Raptor 6 oz/A, 0.25% NIS
[9] = Plateau 7 oz/A, Esplanade 200SC 7 oz/A, Raptor 6 oz/A
[10] = pre-emergence, first year after treatment, Esplanade 200SC 3.5 oz/A, 0.25% NIS
[11] = pre-emergence, first year after treatment, Esplanade 200SC 5 oz/A, 0.25% NIS
[12] = Year 1 after treatment, post-emergence, Plateau 7 oz/A, Esplanade 200SC 7 oz/A, Raptor 6 oz/A, 0.25% NIS

| Structure (SMILES) | Median soil half-life [1] | Biomass (kg/ha) Perennial grasses [2, 7] | % Control Bromus tectorum ([3]; Year 1 after treatment) | % Control Bromus tectorum ([3]; Year 2 after treatment) | % Cover Perennial grasses [4, 8] | % Control Bromus tectorum [5, 9] | Biomass (kg/ha) Bromus tectorum [5, 9] | % Injury Perennial grasses [4, 12] | % Injury Perennial grasses [4, 8] | further results |
| --- | --- | --- | --- | --- | --- | --- | --- | --- | --- | --- |
| Cc1cnc(C2=NC(=O)C(C)(C(C)C)N2)c(C(=O)O)c1 (stereo not drawn) [Imazapic] | 120 days | 91 kg/ha | 97% | 77% | 72% | 90% | 7 kg/ha |  |  | % Injury Perennial grasses [2, 6]: 10%; % Injury Perennial grasses [4, 6]: 15%; % Injury Perennial grasses ([4]; in vivo, 2 year after treatment): 1% |
| Cc1ccc2c(c1)[C@H](Nc1nc(N)nc(C(C)F)n1)[C@@H](C)C2 (mixture of isomers) [Indaziflam, N2-[(1R,2S)-2,3-dihydro-2,6-dimethyl-1H-inden-1-yl]-6-[(1RS)-1-fluoroethyl]-1,3,5-triazine-2,4-diamine] |  | 75 kg/ha | 37% | 93% | 72% | 80% | 32 kg/ha | 0% | 0% | % Injury Perennial grasses [2, 10]: 10%; Biomass (kg/ha) Perennial grasses [2, 10]: 54 kg/ha; % Injury Perennial grasses [2, 11]: 0%; Biomass (kg/ha) Perennial grasses [2, 11]: 63 kg/ha; % Injury Perennial grasses [2, 7]: 5%; Perennial grass biomass ([2]; pre-emergence, indaziflam alone, span over the rates 3.5, 5 and 7 oz/A): 54-75 kg/ha; % Control Bromus tectorum ([5]; Esplanade 200SC 3.5 oz/A): 72%; Biomass (kg/ha) Bromus tectorum ([5]; Esplanade 200SC 3.5 oz/A): 83 kg/ha; % Control Bromus tectorum ([5]; Esplanade 200SC 5 oz/A): 82%; Biomass (kg/ha) Bromus tectorum ([5]; Esplanade 200SC 5 oz/A): 18 kg/ha; control of invasive Bromus tectorum ([5]; indaziflam alone, span over the rates 3.5, 5 and 7 oz/A): 72-82% |
| COCc1cnc(C2=NC(C)(C(C)C)C(=O)N2)c(C(=O)O)c1 (racemic) [Imazamox, 2-[(RS)-4-isopropyl-4-methyl-5-oxo-2-imidazolin-2-yl]-5-methoxymethylnicotinic acid] |  |  | 98% | 20% | 63% |  |  | 0% | 0% |  |
| CCc1cnc(C2=NC(C)(C(C)C)C(=O)N2)c(C(=O)O)c1 (stereo not drawn) [Imazethapyr] | 75 days |  |  |  |  |  |  |  |  |  |
| CC(C)C1(C)N=C(c2ncccc2C(=O)O)NC1=O (stereo not drawn) [Imazapyr] | 83 days |  |  |  |  |  |  |  |  |  |
